Measured values reported in patent publication US10080757B2 (WISCONSIN ALUMNI RESEARCH FOUNDATION, priority 2016, dated 2018).
Values after ≈ are worked out from the molar mass of the structure shown. “Also recorded” adds a separate entry of the source. Read-outs that look alike come from different tables or passages of the source.

What was measured:
[1] = Aggregation by Dynamic Light Scattering (DLS); type: physicochemical; details: for Aggregates observed?: 50 mM sodium phosphate buffer, 1% DMSO; for Aggregation by DLS: concentrations up to 50 μM
Method: A representative subset of the compounds (1, 2, and 4) were evaluated for aggregation by Dynamic Light Scattering (DLS), see Table 1. Samples for DLS analysis were prepared in 50 mM sodium phosphate buffer from DMSO inhibitor stocks, at a final DMSO concentration of 1%, and a range of final concentrations of inhibitor.

recombinant MtbUGM = target: T1, recombinant MtbUGM (Mycobacterium tuberculosis, UniProt P9WIQ1); test: biochemical; details: for inhibition at 100 µM: read-out: % inhib MtbUGM (100 μM)
T1 construct: made in house
T1 sequence (P9WIQ1 whole entry): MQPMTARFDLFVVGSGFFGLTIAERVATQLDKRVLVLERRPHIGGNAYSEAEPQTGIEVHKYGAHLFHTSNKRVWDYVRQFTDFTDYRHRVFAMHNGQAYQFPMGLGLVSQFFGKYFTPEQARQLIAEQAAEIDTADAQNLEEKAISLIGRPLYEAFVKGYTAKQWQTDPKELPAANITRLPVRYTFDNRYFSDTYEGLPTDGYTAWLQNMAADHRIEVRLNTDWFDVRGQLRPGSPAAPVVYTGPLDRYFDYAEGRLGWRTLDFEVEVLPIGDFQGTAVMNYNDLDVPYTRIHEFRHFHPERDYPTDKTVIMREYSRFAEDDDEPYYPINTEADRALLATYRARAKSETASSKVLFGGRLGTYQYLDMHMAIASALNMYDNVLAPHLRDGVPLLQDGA

M. smegmatis [2] = test: Microplate Alamar Blue Assay (MIC, liquid culture); type: cell-based; details: Mycolicibacterium smegmatis
Method: The culture was diluted to OD600=˜0.02 in LB liquid media and added to 96-well plates at a final volume of 100 μL, with added inhibitor concentrations in two-fold dilutions. Perimeter wells were filled with sterile water. After 24 hours at 37° C. in a shaking incubator, 10 μL of the Alamar Blue reagent was added to each well. The plate was incubated for an additional 4 hours at 37° C., at which point fluorescence emission at 585 nm was measured using a plate reader. The lowest inhibitor concentration at which 99% or greater growth inhibition was observed was determined to be the MIC.

CeUGM = CeUGM inhibition; type: biochemical, C. elegans
C. elegans [3] = test: C. elegans growth and proliferation; type: in vivo; details: for Prevention of C. elegans maturation to adulthood and eventual proliferation: 100 μM; for Effective inhibitor of C. elegans growth at 250 μM / Inhibition of C. elegans proliferation: 250 μM
M. smegmatis [4] = test: Agar disk diffusion assay; parameters: zone of inhibition: dose or concentration left out as unconfirmed; details: for zone of inhibition: Mycolicibacterium smegmatis, read-out: Inhibition zone; for Mycobacterial growth inhibition (in words): disk diffusion, solid media
Method: M. smegmatis was grown to saturation over 48 hours at 37° C. in Middlebrook 7H9 media with Albumin Dextrose Catalase (ADC) enrichment and 0.05% Tween80. The culture was diluted to OD600=˜0.2 in LB liquid media and 100 μL of dilute culture was spread onto LB agar plates, then allowed to soak into the agar for 1 hour at room temperature. Sterile disks (3 mm diameter) were impregnated with a solution of inhibitor in DMSO (1.5 μL) and placed on top of the bacterial lawn. […] The plates were incubated for 72 hours at 37° C., at which point a lawn of bacteria was visible. Zones of inhibition were measured as the average diameter of the region around a cloning disk where bacterial growth was not visible. For each disk, three diameter measurements were taken and averaged.

C. elegans [5] = test: C. elegans growth and proliferation; type: in vivo; details: threshold below which proliferation occurs at decreased rate
Excerpt: As concentration decreases, each of these compounds reaches a threshold where they no longer prevent worm proliferation, but rather cause retarded growth and development. The concentration that appears to be this threshold is reported above. Below this concentration, C. elegans growth and proliferation occur, but at a decreased rate with visible ill effects to the animal.

C. elegans [6] = test: Bleach sensitivity assay (time until first rupture); type: in vivo; details: 50 microM; adult worms
Method: Compounds were tested at 50 microM. Adult worms (C. elegans) were chosen for testing and time until first rupture was measured when worms were placed in a bleach, sodium hydroxide solution. […] A graph showing results is provided as FIG. 4. Each treatment group has approximately an n=20. The Thompson Tau technique was used to determine statistical outliers.

[7] = 50 μM compound (FIG. 1), read-out: Inhibition of MtbUGM activity
[8] = Table 2, standard deviation, n = 3
[9] = Table 3, liquid media, at least 99% growth inhibition
[10] = 50 μM, mean of two replicates, read-out: % inhib MtbUGM (50 μM)

O=C(O)C(Cc1ccc(I)cc1)Nc1nc(-c2ccc(Cl)c(Cl)c2)cs1 (stereo not drawn) [Compound 1, 2-((4-(3,4-Dichlorophenyl)thiazol-2-yl)amino)-3-(4-iodophenyl)propanoic acid]
Aggregates observed? ([1]; Conc. 10 uM): No | Aggregates observed? ([1]; Conc. 25 uM): No | Aggregates observed? ([1]; Conc. 50 uM): No | Aggregates observed? ([1]; Conc. 100 uM): Yes | Aggregation by DLS [1]: No aggregation was observed | inhibition at 50 µM (recombinant MtbUGM; [7]): > 90% | IC50 (recombinant MtbUGM; [8]): 6 µM | MIC (M. smegmatis [2]; [9]): 50 µM (≈ 26 µg/mL) | CeUGM % Inhibition at 2.5 μM (CeUGM): 69.5 ± 1.2% | Effective inhibitor of C. elegans growth at 250 μM (C. elegans [3]; Table 7): No | zone of inhibition (M. smegmatis [4]): 5 ± 0.1 mm

CS(=O)(=O)NC(=O)C(Cc1ccc(I)cc1)Nc1nc(-c2ccc(Cl)c(Cl)c2)cs1 (stereo not drawn) [Compound 2, 2-((4-(3,4-dichlorophenyl)thiazol-2-yl)amino)-3-(4-iodophenyl)-N-(methylsulfonyl)propanamide]
Aggregates observed? ([1]; Conc. 10 uM): No | Aggregates observed? ([1]; Conc. 25 uM): No | Aggregates observed? ([1]; Conc. 50 uM): No | Aggregates observed? ([1]; Conc. 100 uM): No | Aggregation by DLS [1]: No aggregation was observed | inhibition at 50 µM (recombinant MtbUGM; [7]): > 90% | IC50 (recombinant MtbUGM; [8]): 12 ± 5 µM | MIC (M. smegmatis [2]; [9]): 25 µM (≈ 14.9 µg/mL) | CeUGM % Inhibition at 2.5 μM (CeUGM): 80.7 ± 1.1% | Apparent MIC (μM) to inhibit C. elegans propagation (C. elegans [5]): 100 µM | Time until first rupture in bleach, sodium hydroxide solution (C. elegans [6]): enhances bleach sensitivity significantly; also recorded: statistically significant decrease | Prevention of C. elegans maturation to adulthood and eventual proliferation (C. elegans [3]): show the ability to prevent C. elegans maturation to adulthood and eventual proliferation | Inhibition of C. elegans proliferation (C. elegans [3]): significantly inhibit | Effective inhibitor of C. elegans growth at 250 μM (C. elegans [3]; Table 7): Yes | zone of inhibition (M. smegmatis [4]): 7 ± 0.1 mm

O=C(NS(=O)(=O)C(F)(F)F)C(Cc1ccc(I)cc1)Nc1nc(-c2ccc(Cl)c(Cl)c2)cs1 (stereo not drawn) [Compound 3, 2-((4-(3,4-dichlorophenyl)thiazol-2-yl)amino)-3-(4-iodophenyl)-N-((trifluoromethyl)sulfonyl)propanamide]
IC50 (recombinant MtbUGM; [8]): 16 ± 10 µM | MIC (M. smegmatis [2]; [9]): 50 µM (≈ 32.5 µg/mL) | CeUGM % Inhibition at 2.5 μM (CeUGM): 84.8 ± 2.2% | Apparent MIC (μM) to inhibit C. elegans propagation (C. elegans [5]): 100 µM | Prevention of C. elegans maturation to adulthood and eventual proliferation (C. elegans [3]): show the ability to prevent C. elegans maturation to adulthood and eventual proliferation | Inhibition of C. elegans proliferation (C. elegans [3]): significantly inhibit | Effective inhibitor of C. elegans growth at 250 μM (C. elegans [3]; Table 7): Yes | zone of inhibition (M. smegmatis [4]): 7.7 ± 0.6 mm

O=C(NS(=O)(=O)c1ccccc1)C(Cc1ccc(I)cc1)Nc1nc(-c2ccc(Cl)c(Cl)c2)cs1 (stereo not drawn) [Compound 4, 2-((4-(3,4-dichlorophenyl)thiazol-2-yl)amino)-3-(4-iodophenyl)-N-(phenylsulfonyl)propanamide]
Aggregates observed? ([1]; Conc. 10 uM): No | Aggregates observed? ([1]; Conc. 25 uM): No | Aggregates observed? ([1]; Conc. 50 uM): No | Aggregates observed? ([1]; Conc. 100 uM): Yes | Aggregation by DLS [1]: No aggregation was observed | IC50 (recombinant MtbUGM; [8]): 7 ± 2 µM | MIC (M. smegmatis [2]; [9]): 25 µM (≈ 16.5 µg/mL) | CeUGM % Inhibition at 2.5 μM (CeUGM): 92.2 ± 0.2% | Apparent MIC (μM) to inhibit C. elegans propagation (C. elegans [5]): 250 µM | Time until first rupture in bleach, sodium hydroxide solution (C. elegans [6]): enhances bleach sensitivity significantly; also recorded: statistically significant decrease | Inhibition of C. elegans proliferation (C. elegans [3]): significantly inhibit | Effective inhibitor of C. elegans growth at 250 μM (C. elegans [3]; Table 7): Yes | zone of inhibition (M. smegmatis [4]): 7.3 ± 0.6 mm

O=C(NS(=O)(=O)c1ccc([N+](=O)[O-])cc1)C(Cc1ccc(I)cc1)Nc1nc(-c2ccc(Cl)c(Cl)c2)cs1 (stereo not drawn) [Compound 5, 2-((4-(3,4-dichlorophenyl)thiazol-2-yl)amino)-3-(4-iodophenyl)-N-((4-nitrophenyl)sulfonyl)propanamide]
IC50 (recombinant MtbUGM; [8]): 4 ± 1 µM | MIC (M. smegmatis [2]; [9]): 50 µM (≈ 35.2 µg/mL) | CeUGM % Inhibition at 2.5 μM (CeUGM): 93.2 ± 0.1% | Apparent MIC (μM) to inhibit C. elegans propagation (C. elegans [5]): 125 µM | Inhibition of C. elegans proliferation (C. elegans [3]): significantly inhibit | Effective inhibitor of C. elegans growth at 250 μM (C. elegans [3]; Table 7): Yes | zone of inhibition (M. smegmatis [4]): 4.2 ± 0.3 mm

COc1ccc(S(=O)(=O)NC(=O)C(Cc2ccc(I)cc2)Nc2nc(-c3ccc(Cl)c(Cl)c3)cs2)cc1 (stereo not drawn) [Compound 6, 2-((4-(3,4-dichlorophenyl)thiazol-2-yl)amino)-3-(4-iodophenyl)-N-((4-methoxyphenyl)sulfonyl)propanamide]
IC50 (recombinant MtbUGM; [8]): 18 ± 9 µM | MIC (M. smegmatis [2]; [9]): 25 µM (≈ 17.2 µg/mL) | CeUGM % Inhibition at 2.5 μM (CeUGM): 92.4 ± 1.2% | Effective inhibitor of C. elegans growth at 250 μM (C. elegans [3]; Table 7): No | zone of inhibition (M. smegmatis [4]): 6 ± 0.1 mm

Cc1ccc(S(=O)(=O)NC(=O)C(Cc2ccc(I)cc2)Nc2nc(-c3ccc(Cl)c(Cl)c3)cs2)cc1 (stereo not drawn) [Compound 7, 2-((4-(3,4-dichlorophenyl)thiazol-2-yl)amino)-3-(4-iodophenyl)-N-tosylpropanamide]
IC50 (recombinant MtbUGM; [8]): 1 ± 1 µM | MIC (M. smegmatis [2]; [9]): 12.5 µM (≈ 8.4 µg/mL) | CeUGM % Inhibition at 2.5 μM (CeUGM): 90.5 ± 0.2% | Effective inhibitor of C. elegans growth at 250 μM (C. elegans [3]; Table 7): No | zone of inhibition (M. smegmatis [4]): 6 ± 0.6 mm | Mycobacterial growth inhibition (in words) (M. smegmatis [4]): inactivity

O=C(NS(=O)(=O)c1ccc(Cl)cc1)C(Cc1ccc(I)cc1)Nc1nc(-c2ccc(Cl)c(Cl)c2)cs1 (stereo not drawn) [Compound 8, N-((4-chlorophenyl)sulfonyl)-2-((4-(3,4-dichlorophenyl)thiazol-2-yl)amino)-3-(4-iodophenyl)propanamide]
IC50 (recombinant MtbUGM; [8]): 3 ± 1 µM | MIC (M. smegmatis [2]; [9]): 12.5 µM (≈ 8.66 µg/mL) | CeUGM % Inhibition at 2.5 μM (CeUGM): 100 ± 0% | Apparent MIC (μM) to inhibit C. elegans propagation (C. elegans [5]): 250 µM | Inhibition of C. elegans proliferation (C. elegans [3]): significantly inhibit | Effective inhibitor of C. elegans growth at 250 μM (C. elegans [3]; Table 7): Yes | zone of inhibition (M. smegmatis [4]): 6.3 ± 0.6 mm

O=C(NS(=O)(=O)c1ccccc1[N+](=O)[O-])C(Cc1ccc(I)cc1)Nc1nc(-c2ccc(Cl)c(Cl)c2)cs1 (stereo not drawn) [Compound 9, 2-((4-(3,4-dichlorophenyl)thiazol-2-yl)amino)-3-(4-iodophenyl)-N-((2-nitrophenyl)sulfonyl)propanamide]
IC50 (recombinant MtbUGM; [8]): 2 ± 1 µM | MIC (M. smegmatis [2]; [9]): 12.5 µM (≈ 8.79 µg/mL) | CeUGM % Inhibition at 2.5 μM (CeUGM): 92.1 ± 1.0% | Apparent MIC (μM) to inhibit C. elegans propagation (C. elegans [5]): 125 µM | Inhibition of C. elegans proliferation (C. elegans [3]): significantly inhibit | Effective inhibitor of C. elegans growth at 250 μM (C. elegans [3]; Table 7): Yes | zone of inhibition (M. smegmatis [4]): 5.7 ± 0.1 mm

COC(=O)C(Cc1ccc(I)cc1)Nc1nc(-c2ccc(Cl)c(Cl)c2)cs1 (stereo not drawn) [Compound 10, Methyl 2-((4-(3,4-dichlorophenyl)thiazol-2-yl)amino)-3-(4-iodophenyl)propanoate]
inhibition at 50 µM (recombinant MtbUGM; [7]): 30% | Effective inhibitor of C. elegans growth at 250 μM (C. elegans [3]; Table 7): No | Mycobacterial growth inhibition (in words) (M. smegmatis [4]): no mycobacterial growth inhibition was observed

O=C(O)CC1Sc2nnc(Cc3ccc(Br)cc3)n2N=C1c1ccc(Cl)cc1 (stereo not drawn) [Compound 11, 2-(3-(4-bromobenzyl)-6-(4-chlorophenyl)-7H-[1,2,4]triazolo[3,4-b][1,3,4]thiadiazin-7-yl)acetic acid]
inhibition at 50 µM (recombinant MtbUGM; [10]): 36% | inhibition at 100 µM (recombinant MtbUGM; mean of two replicates): 72% | IC50 (recombinant MtbUGM; Table 4): 80 ± 29 µM | MIC (M. smegmatis [2]; Table 4): 500 µM (≈ 239 µg/mL) | CeUGM % Inhibition at 10 μM (CeUGM): 53.5 ± 3.0% | Effective inhibitor of C. elegans growth at 250 μM (C. elegans [3]; Table 8): No

CS(=O)(=O)NC(=O)CC1Sc2nnc(Cc3ccc(Br)cc3)n2N=C1c1ccc(Cl)cc1 (stereo not drawn) [Compound 12, 2-(3-(4-bromobenzyl)-6-(4-chlorophenyl)-7H-[1,2,4]triazolo[3,4-b][1,3,4]thiadiazin-7-yl)-N-(methylsulfonyl)acetamide]
inhibition at 50 µM (recombinant MtbUGM; [10]): 50% | inhibition at 100 µM (recombinant MtbUGM; mean of two replicates): 58% | IC50 (recombinant MtbUGM; Table 4): 108 ± 42 µM | MIC (M. smegmatis [2]; Table 4): 500 µM (≈ 277 µg/mL) | CeUGM % Inhibition at 10 μM (CeUGM): 68.1 ± 2.1% | Effective inhibitor of C. elegans growth at 250 μM (C. elegans [3]; Table 8): No

O=C(CC1Sc2nnc(Cc3ccc(Br)cc3)n2N=C1c1ccc(Cl)cc1)NS(=O)(=O)c1ccccc1 (stereo not drawn) [Compound 13, 2-(3-(4-bromobenzyl)-6-(4-chlorophenyl)-7H-[1,2,4]triazolo[3,4-b][1,3,4]thiadiazin-7-yl)-N-(phenylsulfonyl)acetamide]
inhibition at 50 µM (recombinant MtbUGM; [10]): 92% | inhibition at 100 µM (recombinant MtbUGM; mean of two replicates): 94% | IC50 (recombinant MtbUGM; Table 4): 19 ± 6 µM | MIC (M. smegmatis [2]; Table 4): 125 µM (≈ 77.1 µg/mL) | CeUGM % Inhibition at 10 μM (CeUGM): 91.7 ± 0.5% | Apparent MIC (μM) to inhibit C. elegans propagation (C. elegans [5]): 250 µM | Inhibition of C. elegans proliferation (C. elegans [3]): significantly inhibit | Effective inhibitor of C. elegans growth at 250 μM (C. elegans [3]; Table 8): Yes
